From patent US10513521B2, “Compositions and methods for inhibiting BMP” (The Brigham and Women's Hospital, Inc., priority 2014, dated 2019)
Where a chain is given by its changes, count along the chain named. Like-named read-outs stand apart in the source and are kept apart here.

How the values were obtained:
ALK4 = molecular target: T1, ALK4 (Homo sapiens, UniProt P36896); test: TR-FRET enzymatic ALK kinase assay, ALK4
T1 sequence (P36896 24-505): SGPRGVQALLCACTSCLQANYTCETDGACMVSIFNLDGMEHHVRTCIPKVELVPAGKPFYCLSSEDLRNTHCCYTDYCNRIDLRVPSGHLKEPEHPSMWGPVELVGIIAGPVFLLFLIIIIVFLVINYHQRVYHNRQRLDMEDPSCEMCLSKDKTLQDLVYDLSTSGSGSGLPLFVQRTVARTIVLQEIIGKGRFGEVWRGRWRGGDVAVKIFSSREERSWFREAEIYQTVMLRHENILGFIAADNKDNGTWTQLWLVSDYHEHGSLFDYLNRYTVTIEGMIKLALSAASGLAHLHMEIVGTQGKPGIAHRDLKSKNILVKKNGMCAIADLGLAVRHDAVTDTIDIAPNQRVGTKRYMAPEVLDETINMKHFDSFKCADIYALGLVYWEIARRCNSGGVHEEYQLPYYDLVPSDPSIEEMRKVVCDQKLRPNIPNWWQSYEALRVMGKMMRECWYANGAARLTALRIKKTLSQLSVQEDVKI
Experimental: (§1) Briefly, the ALKs enzymatic assay was initiated by dispense 2.5 μl enzyme in 1× kinase reaction buffer. The assay plate was then added with compounds followed by incubation at room temperature for 10 minutes. Then 2.5 μl/well substrate was added.

ALK6 = ALK6 (Homo sapiens, UniProt O00238); test: TR-FRET enzymatic ALK kinase assay, ALK6
Experimental: as §1

ALK5 = molecular target: T2, ALK5 (Homo sapiens, UniProt P36897); test: TR-FRET enzymatic ALK kinase assay, ALK5
T2 sequence (P36897 34-503): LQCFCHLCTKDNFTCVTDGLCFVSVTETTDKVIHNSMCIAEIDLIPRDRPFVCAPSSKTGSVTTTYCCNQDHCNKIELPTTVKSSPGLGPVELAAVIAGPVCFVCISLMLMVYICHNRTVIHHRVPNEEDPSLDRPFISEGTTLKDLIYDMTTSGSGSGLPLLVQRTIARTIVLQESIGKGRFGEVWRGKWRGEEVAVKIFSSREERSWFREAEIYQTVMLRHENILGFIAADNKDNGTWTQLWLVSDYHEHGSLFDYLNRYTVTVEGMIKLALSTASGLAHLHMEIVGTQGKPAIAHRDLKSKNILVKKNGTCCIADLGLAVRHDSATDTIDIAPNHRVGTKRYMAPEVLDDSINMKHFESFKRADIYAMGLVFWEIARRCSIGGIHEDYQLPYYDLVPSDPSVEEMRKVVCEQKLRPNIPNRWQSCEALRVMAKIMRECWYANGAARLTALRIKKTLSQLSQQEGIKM
Experimental: Six ALK kinase enzyme assays were developed for determination of compound activities on ALK1, ALK2, ALK3, ALK4, ALK5 and ALK6.
as §1

ALK1 = ALK1 (Homo sapiens, UniProt P37023); test: TR-FRET enzymatic ALK kinase assay, ALK1
Experimental: as §1

ALK2 [1] = molecular target: T3, ALK2 (Mus musculus, UniProt P37172); test: HTRF pSMAD1 cell-based ALK2 assay (C2C12 cells, BMP6 as agonist)
T3 construct: The C2C12 cell line was selected for the measurement of ALK2 activity using BMP6 as the agonist; host or cells: C2C12
T3 sequence (P37172 21-509): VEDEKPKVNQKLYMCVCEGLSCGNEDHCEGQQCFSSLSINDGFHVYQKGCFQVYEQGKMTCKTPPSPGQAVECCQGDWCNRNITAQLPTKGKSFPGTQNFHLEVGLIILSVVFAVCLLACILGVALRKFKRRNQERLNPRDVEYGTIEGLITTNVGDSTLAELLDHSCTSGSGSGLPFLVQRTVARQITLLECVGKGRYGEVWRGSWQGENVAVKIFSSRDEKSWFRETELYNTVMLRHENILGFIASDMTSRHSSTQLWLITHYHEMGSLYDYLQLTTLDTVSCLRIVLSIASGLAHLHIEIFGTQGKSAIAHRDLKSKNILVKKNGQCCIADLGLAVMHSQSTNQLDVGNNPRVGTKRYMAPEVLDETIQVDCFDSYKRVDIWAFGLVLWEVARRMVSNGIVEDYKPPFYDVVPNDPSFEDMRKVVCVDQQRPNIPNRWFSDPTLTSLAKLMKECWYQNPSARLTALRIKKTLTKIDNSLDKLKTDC
Outline: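 Phospho-SMAD1 HTRF readout, detection incubated overnight at room temperature. Before that: starved cells in 0.1% FBS for 4 h, 30 min compound pretreatment, then 30 min agonist, BMP6 on C2C12 or BMP9 on BAOEC.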

ALK2 [2] = molecular target: T4, ALK2 (Homo sapiens, UniProt Q04771); test: TR-FRET enzymatic ALK kinase assay, ALK2
T4 sequence (Q04771 21-509): T3 sequence (P37172 21-509) with V1M, Q10P, I121L, E162D, S310P
Experimental: as §1

[3] = HTRF assay, BMP6 as agonist, C2C12 cells, read-out: BMP6 HTRF
[4] = cell-based assay, BMP6, read-out: Cell IC50 BMP6

ALK6, sequence (O00238 14-502): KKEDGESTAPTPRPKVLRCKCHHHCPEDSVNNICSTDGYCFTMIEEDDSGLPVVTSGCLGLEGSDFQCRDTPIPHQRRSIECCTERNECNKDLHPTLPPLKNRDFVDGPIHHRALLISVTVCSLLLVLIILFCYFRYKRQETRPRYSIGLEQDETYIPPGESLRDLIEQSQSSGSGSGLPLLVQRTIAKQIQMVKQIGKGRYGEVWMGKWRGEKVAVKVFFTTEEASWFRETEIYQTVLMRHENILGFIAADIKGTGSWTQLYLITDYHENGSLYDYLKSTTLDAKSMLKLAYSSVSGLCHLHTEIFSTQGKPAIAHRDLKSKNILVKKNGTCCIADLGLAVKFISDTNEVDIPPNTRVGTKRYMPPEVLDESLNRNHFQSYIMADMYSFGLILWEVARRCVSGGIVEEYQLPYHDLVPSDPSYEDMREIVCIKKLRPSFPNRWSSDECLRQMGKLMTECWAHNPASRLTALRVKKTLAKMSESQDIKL
ALK1, sequence (P37023 22-503): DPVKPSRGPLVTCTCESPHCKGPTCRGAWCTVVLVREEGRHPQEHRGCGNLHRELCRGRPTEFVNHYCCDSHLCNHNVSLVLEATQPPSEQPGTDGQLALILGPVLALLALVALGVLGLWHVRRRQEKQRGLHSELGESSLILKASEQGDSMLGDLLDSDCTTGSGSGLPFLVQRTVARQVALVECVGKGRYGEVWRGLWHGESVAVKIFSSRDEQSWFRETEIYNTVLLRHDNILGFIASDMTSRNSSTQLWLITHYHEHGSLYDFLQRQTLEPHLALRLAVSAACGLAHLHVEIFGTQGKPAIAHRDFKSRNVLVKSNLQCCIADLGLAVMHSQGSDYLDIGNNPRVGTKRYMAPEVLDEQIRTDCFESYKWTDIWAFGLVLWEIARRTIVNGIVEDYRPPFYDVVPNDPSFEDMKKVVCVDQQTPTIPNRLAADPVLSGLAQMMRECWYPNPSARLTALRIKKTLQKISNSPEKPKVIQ

| SMILES | IC50 (ALK4) | IC50 (ALK6) | IC50 (ALK5) | IC50 (ALK1) | IC50 (ALK2 [1]; [3]) | IC50 (ALK2 [1]; [4]) | IC50 (ALK2 [2]) |
| --- | --- | --- | --- | --- | --- | --- | --- |
| C[C@@H]1CNC[C@H](C)N1c1ccc(-c2cnc3c(-c4cccc5c(C(N)=O)cccc45)cnn3c2)cc1 [Compound 10, 5-(6-(4-((2S,6R)-2,6-dimethylpiperazin-1-yl)phenyl)pyrazolo[1,5-a]pyrimidin-3-yl)-1-naphthamide] | 1.07 µM | 0.034 µM | 9.29 µM | 0.005 µM | 0.019 µM | 0.004 µM | 0.008 µM |
| N/C(=N/O)c1ccc(-c2cnn3cc(-c4ccc(N5CCNCC5)cc4)cnc23)c2ccccc12 [Compound 15, N′-hydroxy-4-(6-(4-(piperazin-1-yl)phenyl)pyrazolo[1,5-a]pyrimidin-3-yl)-1-naphthimidamide] | 30.4 µM | 12.8 µM | 17.5 µM | 1.48 µM | – | 0.17 µM | 0.043 µM |
| CC(C)(CN1CCCCC1)Oc1ccc(-c2cnc3c(-c4cccc5c(C(N)=O)cccc45)cnn3c2)cc1 [Compound 18, 5-(6-(4-((2-methyl-1-(piperidin-1-yl)propan-2-yl)oxy)phenyl)pyrazolo[1,5-a]pyrimidin-3-yl)-1-naphthamide] | 2.34 µM | 0.183 µM | 13.5 µM | 0.016 µM | – | 0.011 µM | 0.005 µM |
| NS(=O)(=O)c1ccc(-c2cnn3cc(-c4ccc(CCN5CCCCC5)cc4)cnc23)c2ccccc12 [Compound 54, 4-(6-(4-(2-(piperidin-1-yl)ethyl)phenyl)pyrazolo[1,5-a]pyrimidin-3-yl)naphthalene-1-sulfonamide] | > 10 µM | > 10 µM | > 10 µM | 0.38 µM | – | 0.16 µM | 0.094 µM |
| C[C@@H]1CNC[C@H](C)N1c1ccc(-c2cnc3c(-c4cccc(S(C)(=O)=O)c4)cnn3c2)cc1 [Compound 82, 6-(4-((2R,6S)-2,6-dimethylpiperazin-1-yl)phenyl)-3-(3-(methylsulfonyl)phenyl)pyrazolo[1,5-a]pyrimidine] | 3.2 µM | 7.9 µM | > 10 µM | 0.03 µM | 0.308 µM | 0.001 µM | 0.012 µM |
| CC(O)c1cccc(-c2cnn3cc(-c4ccc(N5[C@H](C)CNC[C@@H]5C)cc4)cnc23)c1 (stereo partly drawn) [Compound 83, 1-(3-(6-(4-((2R,6S)-2,6-dimethylpiperazin-1-yl)phenyl)pyrazolo[5-a]pyrimidin-3-yl)phenyl)ethanol] | 4.4 µM | 5.4 µM | > 10 µM | 0.057 µM | – | 0.035 µM | 0.012 µM |
| C[S+](=O)([O-])c1cccc(-c2cnn3cc(-c4ccc(OC5(CN6CCCCC6)COC5)cc4)cnc23)c1 [Compound 93, 3-(3-(methylsulfonyl)phenyl)-6-(4-((3-(piperidin-1-ylmethyl)oxetan-3-yl)oxy)phenyl)pyrazolo[1,5-a]pyrimidine] | > 10 µM | 2.9 µM | > 10 µM | 0.1 µM | 0.23 µM | 0.011 µM | 0.029 µM |
| C[C@@H]1CNC[C@H](C)N1c1ccc(-c2cnc3c(-c4cccc(C(C)(C)O)c4)cnn3c2)cc1 [Compound 103, 2-(3-(6-(4-((2R,6S)-2,6-dimethylpiperazin-1-yl)phenyl)pyrazolo[1,5-a]pyrimidin-3-yl)phenyl)propan-2-ol] | 4.2 µM | 4.3 µM | > 10 µM | 0.029 µM | 0.26 µM | 0.018 µM | 0.013 µM |
| CC[S+](=O)([O-])c1cccc(-c2cnn3cc(-c4ccc(N5[C@H](C)CNC[C@@H]5C)cc4)cnc23)c1 [Compound 104, 6-(4-((2R,6S)-2,6-dimethylpiperazin-1-yl)phenyl)-3-(3-(ethylsulfonyl)phenyl)pyrazolo[1,5-a]pyrimidine] | 4.8 µM | 7.4 µM | > 10 µM | 0.034 µM | 0.17 µM | 0.0013 µM | 0.014 µM |
| C[S+](=O)([O-])c1cccc(-c2cnn3cc(-c4ccc(OC5(Cn6ccnc6)COC5)cc4)cnc23)c1 [Compound 105, 6-(4-((3-((1H-imidazol-1-yl)methyl)oxetan-3-yl)oxy)phenyl)-3-(3-(methylsulfonyl)phenyl)pyrazolo[1,5-a]pyrimidine] | > 10 µM | > 10 µM | > 10 µM | 0.15 µM | 0.35 µM | < 0.001 µM | 0.095 µM |
| CS(=O)(=O)c1cccc(-c2cnn3cc(-c4ccc(OCCN5CCCC5)cc4)cnc23)c1 [Compound 108, 3-(3-(methylsulfonyl)phenyl)-6-(4-(2-(pyrrolidin-1-yl)ethoxy)phenyl)pyrazolo[1,5-a]pyrimidine] | > 10 µM | > 10 µM | > 10 µM | 0.39 µM | – | 0.185 µM | 0.083 µM |
| C[S+](=O)([O-])c1cccc(-c2cnn3cc(-c4ccc(OCCN5CCCCC5)cc4)cnc23)c1 [Compound 109] | > 10 µM | > 10 µM | > 10 µM | 0.39 µM | – | 0.002 µM | 0.095 µM |
| C[C@@H]1CNC[C@H](C)N1c1ccc(-c2cnc3c(-c4cccc([S+](=O)([O-])C5CC5)c4)cnn3c2)cc1 [Compound 111, 3-(3-(cyclopropylsulfonyl)phenyl)-6-(4-((2R,6S)-2,6-dimethylpiperazin-1-yl)phenyl)pyrazolo[1,5-a]pyrimidine] | 6.5 µM | > 10 µM | > 10 µM | 0.12 µM | – | < 0.001 µM | 0.017 µM |
| CC(C)S(=O)(=O)c1cccc(-c2cnn3cc(-c4ccc(CCN5CCCCC5)cc4)cnc23)c1 [Compound 113, 3-(3-(isopropylsulfonyl)phenyl)-6-(4-(2-(piperidin-1-yl)ethyl)phenyl)pyrazolo[1,5-a]pyrimidine] | > 10 µM | 9.2 µM | > 10 µM | 0.5 µM | – | 0.0046 µM | 0.094 µM |
| CC(C)S(=O)(=O)c1cccc(-c2cnn3cc(-c4ccc(N5[C@H](C)CNC[C@@H]5C)cc4)cnc23)c1 [Compound 114, 6-(4-((2R,6S)-2,6-dimethylpiperazin-1-yl)phenyl)-3-(3-(isopropylsulfonyl)phenyl)pyrazolo[1,5-a]pyrimidine] | 4.1 µM | 6.3 µM | > 10 µM | 0.067 µM | – | < 0.001 µM | 0.032 µM |
